Assay results: patent publication US20050009840A1 (SUGEN, INC., priority 2003, published 2005)
“And” between values parts separate entries of the source, which are not always exact repeats. Equal values may be shown once.

The compounds below were run against T1, Met kinase domain (GST fusion protein) (Homo sapiens, UniProt P08581) (assay: Met transphosphorylation assay (ELISA, poly(glu-tyr) substrate)). Conditions: at 20 μM; read-out: Met inhibition (printed in the Met IC50 column).
T1 construct: Purified GST fusion protein containing the Met kinase domain
Assay type: biochemical
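Also: Cell-free ELISA with plate-bound poly(Glu:Tyr 4:1) phosphorylated by GST-fused Met kinase domain plus ATP and Mn2+, phosphotyrosine detected by anti-phosphotyrosine antibody with HRP and ABTS read-out.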
Description: General procedure is as follows: a compound is introduced to cells expressing the test kinase, either naturally or recombinantly, for a selected period of time after which, if the test kinase is a receptor, a ligand known to activate the receptor is added. The cells are lysed and the lysate is transferred to the wells of an ELISA plate previously coated with a specific antibody recognizing the substrate of the enzymatic phosphorylation reaction. Non-substrate components of the cell lysate are washed away and the amount of phosphorylation on the substrate is detected with an antibody specifically recognizing phosphotyrosine compared with control cells that were not contacted with a test compound.
Met Transphosphorylation Assay
This assay is used to measure phosphotyrosine levels on a poly(glutamic acid:tyrosine, 4:1) substrate as a means for identifying agonists/antagonists of met transphosphorylation of the substrate.
PBS, Gibco Catalog # 450-1300EB • 4. 50 mM HEPES • 5. […] Purified GST fusion protein containing the Met kinase domain, SUGEN, Inc. • 7. TBST Buffer. • 8. 10% aqueous (MilliQue H2O) DMSO. • 9. […] 2× Kinase Dilution Buffer: for 100 mL, mix 10 mL 1M HEPESat pH 7.5 with 0.4 mL 5% BSA/PBS, 0.2 mL 0.1 M sodium orthovanadate and 1 mL 5M sodium chloride in 88.4 mL dH2O. • 11. 4× ATP Reaction Mixture: for 10 mL, mix 0.4 mL 1 M manganese chloride and 0.02 mL 0.1 M ATP in 9.56 mL dH2O. • 12. 4× Negative Controls Mixture: for 10 mL, mix 0.4 mL 1 M manganese chloride in 9.6 mL dH2O. • 13. […] 500 mM EDTA. • 15. Antibody Dilution Buffer: for 100 mL, mix 10 mL 5% BSA/PBS, 0.5 mL 5% Carnation® Instant Milk in PBS and 0.1 mL 0.1 M sodium orthovanadate in 88.4 mL TBST. • 16. Rabbit polyclonal antophosphotyrosine antibody, SUGEN, Inc. • 17. Goat anti-rabbit horseradish peroxidase conjugated antibody, Biosource, Inc. • 18. ABTS Solution: for 1 L, mix 19.21 g citric acid, 35.49 g Na2HPO4 and 500 mg ABTS with sufficient dH2O to make 1 L. • 19. ABTS/H2O2: mix 15 mL ABST solution with 2μL H2O2 five minutes before use. • 20. 0.2 M HCl Procedure: • 1. Coat ELISA plates with 2 μg Poly(Glu-Tyr) in 100 μL PBS, hold-overnight at 4° C. • 2. Block plate with 150 μL of 5% BSA/PBS for 60 min. • 3. Wash plate twice with PBS then once with 50 mM Hepes buffer pH 7.4. • 4. Add 50 μl of the diluted kinase to all wells. (Purified kinase is diluted with Kinase Dilution Buffer. Final concentration should be 10 ng/well.) • 5. Add 25 μL of the test compound (in 4% DMSO) or DMSO alone (4% in dH2O) for controls to plate. • 6. Incubate the kinase/compound mixture for 15 minutes. • 7. Add 25 μL of 40 mM MnCl2 to the negative control wells. • 8. Add 25 μL ATP/MnCl2 mixture to the all other wells (except the negative controls). Incubate for 5 min. • 9. Add 25 μL 500 mM EDTA to stop reaction. • 10. Wash plate 3× with TBST. • 11. Add 100 μL rabbit polyclonal anti-Ptyr diluted 1:10,000 in Antibody Dilution Buffer to each well. Incubate, with shaking, at room temperature for one hour. • 12. Wash plate 3× with TBST. • 13. […] Add 100 μL per well and incubate at room temperature, with shaking, for one hour. • 14. Wash plate 1× with PBS. • 15. Add 100 μl of ABTS/H2O2 solution to each well. • 16. If necessary, stop the development reaction with the addition of 100 μl of 0.2M HCl per well. • 17.

T1 sequence (P08581 1078-1345 limits assumed): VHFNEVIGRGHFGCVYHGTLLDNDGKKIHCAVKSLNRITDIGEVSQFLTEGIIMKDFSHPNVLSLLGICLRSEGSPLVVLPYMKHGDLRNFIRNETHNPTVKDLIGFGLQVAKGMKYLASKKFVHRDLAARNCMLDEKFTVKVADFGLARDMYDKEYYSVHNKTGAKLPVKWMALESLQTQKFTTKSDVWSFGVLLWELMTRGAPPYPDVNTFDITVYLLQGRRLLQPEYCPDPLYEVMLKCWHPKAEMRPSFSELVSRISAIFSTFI

Row | inhibition at 20 µM | SMILES
1 | 40% | Nc1ncc(Br)cc1OCc1c(F)cccc1F [I(c)]

Same assay, conditions: plain numbers in column Met IC50 (μM) of Table 2; read-out: Met IC50

Row | SMILES | IC50
2 | CC(Oc1cc(OCc2ccccc2)cnc1N)c1c(F)ccc(F)c1Cl (stereo not shown) [Example I-529, 5-Benzyloxy-3-[1-(2-chloro-3,6-difluoro-phenyl)-ethoxy]-pyridin-2-ylamine] | 2.58 µM
3 | CCC(CC)COc1cnc(N)c(OC(C)c2c(F)ccc(F)c2Cl)c1 (stereo not shown) [Example I-530, 3-[1-(2-Chloro-3,6-difluoro-phenyl)-ethoxy]-5-(2-ethyl-butoxy)-pyridin-2-ylamine] | 4.08 µM
4 | CC(C)CCOc1cnc(N)c(OC(C)c2c(F)ccc(F)c2Cl)c1 (stereo not shown) [Example I-531, 3-[1-(2-Chloro-3,6-difluoro-phenyl)-ethoxy]-5-(3-methyl-butoxy)-pyridin-2-ylamine] | 2.4 µM
5 | CCCCOc1cnc(N)c(OC(C)c2c(F)ccc(F)c2Cl)c1 (stereo not shown) [Example I-532, 3-[1-(2-Chloro-3,6-difluoro-phenyl)-ethoxy]-5-butoxy-pyridin-2-ylamine] | 1.94 µM
6 | CCCOc1cnc(N)c(OC(C)c2c(F)ccc(F)c2Cl)c1 (stereo not shown) [Example I-533, 3-[1-(2-Chloro-3,6-difluoro-phenyl)-ethoxy]-5-propoxy-pyridin-2-ylamine] | 0.672 µM
7 | CC(Oc1cc(OCC2CCCCC2)cnc1N)c1c(F)ccc(F)c1Cl (stereo not shown) [Example I-534, 3-[1-(2-Chloro-3,6-difluoro-phenyl)-ethoxy]-5-cyclohexylmethoxy-pyridin-2-ylamine] | 5.97 µM
8 | CC(Oc1cc(O)cnc1N)c1c(F)ccc(F)c1Cl (stereo not shown) [Example I-535, 6-Amino-5-[1-(2-chloro-3,6-difluoro-phenyl)-ethoxy]-pyridin-3-ol] | 0.54 µM
9 | CC(Oc1cc(OCCC2CCCCC2)cnc1N)c1c(F)ccc(F)c1Cl (stereo not shown) [Example I-536, 3-[1-(2-Chloro-3,6-diftuoro-phenyl)-ethoxy]-5-(2-cyclohexyl-ethoxy)-pyridin-2-ylamine] | 7.5 µM
10 | CC(C)COc1cnc(N)c(OC(C)c2c(F)ccc(F)c2Cl)c1 (stereo not shown) [Example I-537, 3-[1-(2-Chloro-3,6-difluoro-phenyl)-ethoxy]-5-isobutoxy-pyridin-2-ylamine] | 1.2 µM
11 | CC(Oc1cc(OCCc2ccccc2)cnc1N)c1c(F)ccc(F)c1Cl (stereo not shown) [Example I-538, 3-[1-(2-Chloro-3,6-difluoro-phenyl)-ethoxy]-5-phenethyloxy-pyridin-2-ylamine] | 2.8 µM
12 | CC(Oc1cc(OCc2ccccn2)cnc1N)c1c(F)ccc(F)c1Cl (stereo not shown) [Example I-539, 3-[1-(2-Chloro-3,6-difluoro-phenyl)-ethoxy]-5-(pyridin-2-ylmethoxy)-pyridin-2-ylamine] | 3.2 µM
13 | CC(Oc1cc(OCc2ccncc2)cnc1N)c1c(F)ccc(F)c1Cl (stereo not shown) [Example I-540, 3-[1-(2-Chloro-3,8-difluoro-phenyl)-ethoxy]-5-(pyridin-4-ylmethoxy)-pyridin-2-ylamine] | 0.8 µM
14 | CC(Oc1cc(-c2ccc(C(=O)N3CCN(C)CC3)cc2)cnc1N)c1c(Cl)ccc(F)c1Cl (stereo not shown) [Example I-541, (4-{6-Amino-5-[1-(2,6-dichloro-3-fluoro-phenyl)-ethoxy]-pyridin-3-yl}-phenyl)-(4-methyl-piperazin-1-yl)-methanone] | 0.079 µM

Same assay, conditions: read-out: Met IC50

Row | SMILES | IC50
15 | Nc1ncc(Br)cc1OCc1c(Cl)cccc1Cl [I(a), 5-Bromo-3-(2,6-dichloro-benzyloxy)-pyridin-2-ylamine] | 5.3 µM
16 | Nc1ncc(Br)cc1OCc1ccccc1 [I(b), 3-Benzyloxy-5-bromo-pyridin-2-ylamine] | > 20 µM
17 | Nc1ncc(Br)cc1OCc1ccccc1Br [I(d), 5-Bromo-3-(2-bromo-benzyloxy)-pyridin-2-ylamine] | > 20 µM
18 | Nc1ncc(Br)cc1OCc1c(F)cccc1Cl [I(e), 5-Bromo-3-(2-chloro-6-fluoro-benzyloxy)-pyridin-2-ylamine] | 20 µM
19 | Nc1ncc(Br)cc1OCc1c(F)ccc(F)c1Cl [I(l), 5-Bromo-3-(2-chloro-3.6-difluoro-benzyloxy)-pyridin-2-ylamine] | 5.3 µM
20 | Nc1ncc(Br)nc1OCc1c(Cl)cccc1Cl [II(a), 5-Bromo-3-(2,6-dichloro-benzyloxy)-pyrazin-2-ylamine] | > 20 µM
21 | Nc1ncc(Br)nc1OCc1c(F)ccc(F)c1Cl [II(b), 5-Bromo-3-(2-chloro-3,6-difluoro-benzyloxy)-pyrazin-2-ylamine] | > 20 µM
22 | CC(Oc1nc(Br)cnc1N)c1c(F)ccc(F)c1Cl (stereo not shown) [II(c), 5-Bromo-3-[1-(2-chloro-3,6-difluoro-phenyl)-ethoxy]-pyrazin-2-ylamine] | 1.81 µM and 2.67 µM
23 | CC(C)C(Oc1nc(Br)cnc1N)c1c(F)ccc(F)c1Cl (stereo not shown) [II(d), 5-Bromo-3-[1-(2-chloro-3,6-difluoro-phenyl)-2-methyl-propoxy]-pyrazin-2-ylamine] | 18.1 µM
24 | CC(Oc1nc(Br)cnc1N)c1c(Cl)ccc(F)c1Cl (stereo not shown) [II(e), 5-Bromo-3-[1-(2,6-dichloro-3-fluoro-phenyl)-ethoxy]-pyrazin-2-ylamine] | 0.24 µM and 0.66 µM and 1.3 µM
25 | Nc1ncc(-c2ccc(O)cc2)nc1OCc1c(Cl)cccc1Cl [II-1, 4-[5-Amino-6-(2,6-dichloro-benzyloxy)-pyrazin-2-yl]-phenol] | 1.35 µM
26 | Nc1ncc(-c2ccc(N3CCCS3(=O)=O)cc2)nc1OCc1c(Cl)cccc1Cl [II-2, 3-(2,6-Dichloro-benzyloxy)-5-[4-(1,1-dioxo-1λ^6-isothiazolidin-2-yl)-phenyl]-pyrazin-2-ylamine] | 0.825 µM
27 | Nc1ncc(-c2cccc(OCCN3CCOCC3)c2)nc1OCc1c(Cl)cccc1Cl [II-3, 3-(2,6-Dichloro-benzyloxy)-5-[3-(2-morpholin-4-yl-ethoxy)-phenyl]-pyrazin-2-ylamine] | 0.74 µM
28 | Nc1ncc(-c2ccc(OCCN3CCOCC3)cc2)nc1OCc1c(Cl)cccc1Cl [II-4, 3-(2,6-Dichloro-benzyloxy)-5-[4-(2-morpholin-4-yl-ethoxy)-phenyl]-pyrazin-2-ylamine] | 1.25 µM
29 | Nc1ccc(-c2cnc(N)c(OCc3c(Cl)cccc3Cl)n2)cc1 [II-5, 5-(4-Amino-phenyl)-3-(2,6-dichloro-benzyloxy)-pyrazin-2-ylamine] | 0.94 µM
30 | Nc1ncc(-c2ccc(C(=O)O)cc2)nc1OCc1c(Cl)cccc1Cl [II-6, 4-[5-amino-6-(2,6-dichloro-benzyloxy)-pyrazin-2-yl]-benzoic acid] | 1.75 µM
31 | Nc1ncc(-c2ccc(C(=O)N3CCC[C@@H]3CN3CCCC3)cc2)nc1OCc1c(Cl)cccc1Cl [II-7, {4-[5-Amino-6-(2,6-dichloro-benzyloxy)-pyrazin-2-yl]-phenyl)[(2R)-2-pyrrolidin-1-ylmethyl-pyrrolidin-1-yl]-methanone] | 0.24 µM
32 | Nc1ncc(-c2ccc(C(=O)N3CCC(N4CCCC4)CC3)cc2)nc1OCc1c(Cl)cccc1Cl [II-8] | 0.56 µM
33 | Nc1ncc(-c2ccc(NS(=O)(=O)CCN3CCOCC3)cc2)nc1OCc1c(F)ccc(F)c1Cl [II-9, 2-Morpholin-4-yl-ethanesulfonic acid {4-[5-amino-6-(2-chloro-3,6-difluoro-benzyloxy)-pyrazin-2-yl]-phenyl}-amide] | 1.26 µM
34 | Nc1ncc(-c2ccc(NS(=O)(=O)CCN3CCCCC3)cc2)nc1OCc1c(F)ccc(F)c1Cl [II-10, 2-Piperidin-1-yl-ethanesulfonic acid {4-[5-amino-6-(2-chloro-3,6-difluoro-benzyloxy)-pyrazin-2-yl]-phenyl}-amide] | 1.2 µM
35 | Nc1ncc(-c2ccc(NS(=O)(=O)CCN3CCC(O)CC3)cc2)nc1OCc1c(F)ccc(F)c1Cl [II-11, 2-(4-Hydroxy-piperidin-1-yl)-ethanesulfonic acid {4-[5-amino-6-(2-chloro-3,6-difluoro-benzyloxy)-pyrazin-2-yl]-phenyl}-amide] | 0.65 µM
36 | Nc1ncc(-c2ccc(NS(=O)(=O)CCN3CCCC3)cc2)nc1OCc1c(F)ccc(F)c1Cl [II-12, 2-Pyrrolidin-1-yl-ethanesulfonic acid {4-[5-amino-6-(2-chloro-3,6-difluoro-benzyloxy)-pyrazin-2-yl]-phenyl}-amide] | 0.58 µM
37 | Nc1ncc(-c2ccc(NS(=O)(=O)CCN3CC[C@@H](O)C3)cc2)nc1OCc1c(F)ccc(F)c1Cl [II-13, 2-[(3R)-3-Hydroxy-pyrrolidin-1-yl]-ethanesulfonic acid {4-[5-amino-6-(2-chloro-3,6-difluoro-benzyloxy)-pyrazin-2-yl]-phenyl}-amide] | 1.59 µM
38 | Nc1ncc(-c2ccc(NS(=O)(=O)CCN3CCC[C@H]3CO)cc2)nc1OCc1c(F)ccc(F)c1Cl [II-14, 2-[(2S)-2-Hydroxymethyl-pyrrolidin-1-yl]-ethanesulfonic acid {4-[5-amino-6-(2-chloro-3,6-difluoro-benzyloxy)-pyrazin-2-yl]-phenyl}-amide] | 1.78 µM
39 | Nc1ncc(-c2ccc(NS(=O)(=O)CCNCC3CC3)cc2)nc1OCc1c(F)ccc(F)c1Cl [II-15, 2-(Cyclopropylmethyl-amino)-ethanesulfonic acid {4-[5-amino-6-(2-chloro-3,6-difluoro-benzyloxy)-pyrazin-2-yl]-phenyl}-amide] | 1.28 µM
40 | CN(C)CCS(=O)(=O)Nc1ccc(-c2cnc(N)c(OCc3c(F)ccc(F)c3Cl)n2)cc1 [II-16, 2-Dimethylamino-ethanesulfonic acid {4-[5-amino-6-(2-chloro-3,6-difluoro-benzyloxy)-pyrazin-2-yl]-phenyl}-amide] | 0.91 µM
41 | CC(=O)N1CCN(CCS(=O)(=O)Nc2ccc(-c3cnc(N)c(OCc4c(F)ccc(F)c4Cl)n3)cc2)CC1 [II-18, 2-(4-Acetyl-piperazin-1-yl)-ethanesulfonic acid {4-[5-amino-6-(2-chloro-3,6-difluoro-benzyloxy)-pyrazin-2-yl]-phenyl}-amide] | 1.5 µM
42 | Nc1ncc(-c2ccc(NS(=O)(=O)CCNC3CC3)cc2)nc1OCc1c(F)ccc(F)c1Cl [II-20, 2-Cyclopropylamino-ethanesulfonic acid {4-[5-amino-6-(2-chloro-3,6-difluoro-benzyloxy)-pyrazin-2-yl]-phenyl}-amide] | 1.29 µM
43 | Nc1ncc(-c2cccc(NS(=O)(=O)CCN3CCC(O)CC3)c2)nc1OCc1c(F)ccc(F)c1Cl [II-22, 2-(4-Hydroxy-piperidin-1-yl)-ethanesulfonic acid {3-[5-amino-6-(2-chloro-3,6-difluoro-benzyloxy)-pyrazin-2-yl]-phenyl}-amide] | 0.7 µM
